Reference: the NIST ThermoML archive (doi:10.1021/je700492k)
Numbers after ± are expanded uncertainties.

Test: excess molar enthalpy (molar enthalpy of mixing); xn = mol fraction of the nth substance listed
Details: Liquid, Flow calorimetry

CC(=O)CC(C)=O [2,4-pentanedione] + CC(C)O
excess molar enthalpy [kcal/mol]
Details | 298.15 K | 313.15 K | 328.15 K
100 kPa, x1 = 0.0503 | 0.0985 ± 0.00263 | 0.101 ± 0.00263 | 0.103 ± 0.00263
100 kPa, x1 = 0.1501 | 0.235 ± 0.00526 | 0.247 ± 0.0055 | 0.262 ± 0.00574
100 kPa, x1 = 0.2502 | 0.321 ± 0.00693 | 0.344 ± 0.00741 | 0.365 ± 0.00789
100 kPa, x1 = 0.3499 | 0.374 ± 0.00813 | 0.403 ± 0.0086 | 0.43 ± 0.00908
100 kPa, x1 = 0.3997 | 0.39 ± 0.00837 | 0.421 ± 0.00908 | 0.448 ± 0.00956
100 kPa, x1 = 0.4498 | 0.401 ± 0.0086 | 0.432 ± 0.00932 | 0.459 ± 0.0098
100 kPa, x1 = 0.5001 | 0.405 ± 0.0086 | 0.436 ± 0.00932 | 0.462 ± 0.0098
100 kPa, x1 = 0.5507 | 0.403 ± 0.0086 | 0.432 ± 0.00932 | 0.457 ± 0.0098
100 kPa, x1 = 0.6 | 0.395 ± 0.00837 | 0.42 ± 0.00908 | 0.444 ± 0.00956
100 kPa, x1 = 0.6493 | 0.38 ± 0.00813 | 0.402 ± 0.0086 | 0.422 ± 0.00908
100 kPa, x1 = 0.7 | 0.356 ± 0.00765 | 0.376 ± 0.00813 | 0.393 ± 0.00837
100 kPa, x1 = 0.7999 | 0.285 ± 0.00621 | 0.296 ± 0.00645 | 0.305 ± 0.00669
100 kPa, x1 = 0.8503 | 0.234 ± 0.00526 | 0.238 ± 0.00526 | 0.246 ± 0.0055
100 kPa, x1 = 0.9504 | 0.0914 ± 0.00239 | 0.0934 ± 0.00263 | 0.0939 ± 0.00263
10000 kPa, x1 = 0.0502 | 0.0928 ± 0.00239 | 0.0986 ± 0.00263 | 0.103 ± 0.00263
10000 kPa, x1 = 0.1497 | 0.224 ± 0.00502 | 0.245 ± 0.0055 | 0.258 ± 0.00574
10000 kPa, x1 = 0.2496 | 0.312 ± 0.00669 | 0.341 ± 0.00741 | 0.362 ± 0.00789
10000 kPa, x1 = 0.3492 | 0.367 ± 0.00789 | 0.402 ± 0.0086 | 0.426 ± 0.00908
10000 kPa, x1 = 0.3989 | 0.384 ± 0.00813 | 0.42 ± 0.00908 | 0.445 ± 0.00956
10000 kPa, x1 = 0.449 | 0.395 ± 0.00837 | 0.431 ± 0.00908 | 0.456 ± 0.0098
10000 kPa, x1 = 0.4993 | 0.4 ± 0.0086 | 0.435 ± 0.00932 | 0.46 ± 0.0098
10000 kPa, x1 = 0.5498 | 0.399 ± 0.0086 | 0.431 ± 0.00932 | 0.455 ± 0.0098
10000 kPa, x1 = 0.5992 | 0.391 ± 0.00837 | 0.42 ± 0.00908 | 0.443 ± 0.00956
10000 kPa, x1 = 0.6486 | 0.376 ± 0.00813 | 0.401 ± 0.0086 | 0.422 ± 0.00908
10000 kPa, x1 = 0.6994 | 0.354 ± 0.00765 | 0.374 ± 0.00813 | 0.392 ± 0.00837
10000 kPa, x1 = 0.7993 | 0.284 ± 0.00621 | 0.294 ± 0.00645 | 0.304 ± 0.00669
10000 kPa, x1 = 0.8499 | 0.234 ± 0.00526 | 0.238 ± 0.00526 | 0.244 ± 0.0055
10000 kPa, x1 = 0.9503 | 0.0908 ± 0.00239 | 0.0922 ± 0.00239 | 0.0924 ± 0.00263

CC(=O)CC(C)=O [2,4-pentanedione] + CCCO
excess molar enthalpy [kcal/mol]
Details | 298.15 K | 313.15 K | 328.15 K
100 kPa, x1 = 0.0502 | 0.0721 ± 0.00196 | 0.0788 ± 0.00215 | 0.0869 ± 0.00234
100 kPa, x1 = 0.1502 | 0.184 ± 0.00406 | 0.205 ± 0.00454 | 0.224 ± 0.00502
100 kPa, x1 = 0.2502 | 0.259 ± 0.00574 | 0.289 ± 0.00621 | 0.321 ± 0.00693
100 kPa, x1 = 0.3504 | 0.311 ± 0.00669 | 0.347 ± 0.00741 | 0.385 ± 0.00837
100 kPa, x1 = 0.4001 | 0.327 ± 0.00693 | 0.364 ± 0.00789 | 0.404 ± 0.0086
100 kPa, x1 = 0.4502 | 0.338 ± 0.00717 | 0.374 ± 0.00813 | 0.416 ± 0.00884
100 kPa, x1 = 0.5006 | 0.344 ± 0.00741 | 0.38 ± 0.00813 | 0.421 ± 0.00908
100 kPa, x1 = 0.5501 | 0.344 ± 0.00741 | 0.378 ± 0.00813 | 0.419 ± 0.00884
100 kPa, x1 = 0.5997 | 0.339 ± 0.00717 | 0.371 ± 0.00789 | 0.41 ± 0.00884
100 kPa, x1 = 0.6495 | 0.327 ± 0.00693 | 0.355 ± 0.00765 | 0.392 ± 0.00837
100 kPa, x1 = 0.6994 | 0.309 ± 0.00669 | 0.333 ± 0.00717 | 0.366 ± 0.00789
100 kPa, x1 = 0.8006 | 0.248 ± 0.00526 | 0.261 ± 0.00574 | 0.286 ± 0.00621
100 kPa, x1 = 0.8504 | 0.202 ± 0.00454 | 0.211 ± 0.00478 | 0.233 ± 0.00526
100 kPa, x1 = 0.9493 | 0.0794 ± 0.00215 | 0.0835 ± 0.00225 | 0.0913 ± 0.00239
10000 kPa, x1 = 0.0502 | 0.0712 ± 0.00191 | 0.0775 ± 0.0021 | 0.0866 ± 0.00234
10000 kPa, x1 = 0.1504 | 0.181 ± 0.00406 | 0.201 ± 0.00454 | 0.222 ± 0.00502
10000 kPa, x1 = 0.2504 | 0.258 ± 0.0055 | 0.285 ± 0.00621 | 0.317 ± 0.00693
10000 kPa, x1 = 0.3507 | 0.309 ± 0.00669 | 0.343 ± 0.00741 | 0.379 ± 0.00813
10000 kPa, x1 = 0.4004 | 0.326 ± 0.00693 | 0.361 ± 0.00765 | 0.399 ± 0.0086
10000 kPa, x1 = 0.4505 | 0.338 ± 0.00717 | 0.371 ± 0.00789 | 0.413 ± 0.00884
10000 kPa, x1 = 0.501 | 0.344 ± 0.00741 | 0.375 ± 0.00813 | 0.418 ± 0.00884
10000 kPa, x1 = 0.5505 | 0.343 ± 0.00741 | 0.375 ± 0.00813 | 0.415 ± 0.00884
10000 kPa, x1 = 0.6001 | 0.339 ± 0.00717 | 0.367 ± 0.00789 | 0.405 ± 0.0086
10000 kPa, x1 = 0.6499 | 0.326 ± 0.00693 | 0.352 ± 0.00765 | 0.387 ± 0.00837
10000 kPa, x1 = 0.6997 | 0.308 ± 0.00669 | 0.329 ± 0.00717 | 0.36 ± 0.00765
10000 kPa, x1 = 0.8009 | 0.246 ± 0.00526 | 0.257 ± 0.0055 | 0.282 ± 0.00621
10000 kPa, x1 = 0.8506 | 0.201 ± 0.00454 | 0.207 ± 0.00454 | 0.228 ± 0.00502
10000 kPa, x1 = 0.9494 | 0.0791 ± 0.00213 | 0.0806 ± 0.00217 | 0.0894 ± 0.00239
